Experimental data from US10292949B2, “Pharmaceutical composition comprising rimeporide for treating diseases associated with insulin resistance and β-cell dysfunction” (Merck Patent GmbH, priority 2008, dated 2019).
Where a name gives a salt, the structure may show the parent alone.

Legend:
Assay type in all cases: in vivo, rat
[1] = Pharmacological Study Report I: body weight of ZF (fa/fa) rats during 4 weeks of treatment; conditions: age 8-12 weeks, Compound A 150 mg/kg gavage twice daily, Compound B 40 mg/kg/day in chow
Method: (§1) Obese, insulin resistant ZF (fa/fa) rats, which are treated from the age of 8-12 weeks, were used as IR model. Rats were housed with a 12-h light/dark cycle and free access to food and water unless otherwise noted. Studies were approved by the Institutional Animal Care and Use Committee. There were a total of 18 animals in the study (8 week-old males, provided by Charles River). Animals were randomized into 3 groups (vehicle group, Compound A group, Compound B group, n=6 per group) based on random glucose level at the beginning of the study: • Group 1: ZF rats (fa/fa) (n=6), compound A (150 mg/kg via gavage) • Group 2: ZF rats (fa/fa) (n=6), compound B (40 mg/kg/day as admixture to the chow) • Group 3: ZF rats (fa/fa) (n=6), vehicle treatment (control chow, vehicle gavage)
(§2) Group 1 and 3 animals were treated with compound A or vehicle (water) for 4 weeks (from age 8-12 weeks) via oral gavage, twice daily. Chow containing compound B was fed to Group 2 ad lib. Group 1 and Group 3 were fed with chow without compound B ad lib.

[2] = test system: Obese, insulin resistant ZF (fa/fa) rats; assay: Pharmacological Study Report I: deuterated glucose disposal test (2H-GDT); conditions: 4 weeks, Compound B 40 mg/kg/day in chow
Method: as §1, §2
Rats underwent a 4 hour fast. […] At t=0, the blood glucose concentrations were determined with a glucometer, and a blood sample was obtained for determination of base line insulin and H2O^18 dilution. […]
One hundred micro liter aliquots of plasma samples inside the cape of an inverted vial were placed in a heating blocked filled with glass beads at 70° C. overnight and the water distillate inside the vial was collected. The deuterium and oxygen-18 isotope ratios of the blood of plasma samples were determined using a Thermo Finnigan High Temperature Conversion/Elemental Analyzer coupled with a Thermo Finnigan MAT 253 IRMS via a Conflo-III Interface. […] The deuterium isotope abundance is first calculated in δ 2H values relative to the international VSMOW standard, and then transformed to APE by using a calibration curve of standards with known enrichments. The ^2H2O enrichment was calculated for rats at 30 min after the glucose load. ^2H2O enrichment was converted to mmoles by multiplying enrichment by the TBW pool size and dividing by 20 (MW ^2H2O). […]

[3] = Pharmacological Study Report II: body weight and food intake; conditions: for Average food consumption, Week 1 / Average food consumption, Week 2 / Average food consumption, Week 3 / Average food consumption, Week 4: fa/fa rats, average +/- SD
Method: (§3) Thirty-six obese Zucker fa/fa and six lean Zucker fa/? male rats obtained from Charles River, were housed under normal vivarium conditions on a 12 hour light/dark cycle. The rats were kept two to a cage with food and water available ad lib, except during the weekly, 4 hour fasts. Water continued to be available during these fasts.
(§4) Compound A corresponds to Cariporide. Compound B corresponds to 2-Methyl-4,5-di-(methylsulfonyl)-benzoyl-guanidine hydrochloride hydrate. Compounds A and B were supplied in powder form by Merck Serono. Drugs were incorporated into a pelleted diet (LabDiet, 5001) by Research Diets, Inc (New Brunswick, N.J.) at concentrations of 0.44 g/kg or 0.88 g/kg of diet to yield approximate doses of 40 or 80 mg/kg. The concentration was calculated based on the assumption that a 300 g rat would eat about 30 g/d of chow. The same chow, but without drug, was fed to rats of both the lean and fa/fa control group animals.
(§5) One week prior to the start of the study, all rats were weighed. After a 4 hour fast, a blood sample was obtained for the determination of blood glucose, insulin, and glycosylated hemoglobin levels (HbA1c). Animals were then sorted on the basis of these parameters into the groups listed below. Rats were eight weeks of age at the onset of treatment.
(§6) • 1. ZF rats (fa/fa) (n=6) chow without drug • 2. ZF rats (fa/fa) (n=6) compound A (40 mg/kg/day) • 3. ZF rats (fa/fa) (n=6) compound A (80 mg/kg/day) • 4. ZF rats (fa/fa) (n=6) compound B (40 mg/kg/day) • 5. ZF rats (fa/fa) (n=6) compound B (80 mg/kg/day) • 6. lean Zucker rats (fa/?) (n=6) chow without drug Dosing Regime
(§7) Treatment appropriate chow was continuously available for 4 weeks except during scheduled 4 h fasts conducted once per week.
individual body weights were determined once per week. Average food intake per cage was also determined once per week and the individual rat consumption was calculated by dividing the cage average by 2 (rats housed 2/cage).

obese Zucker fa/fa rats [4] = assay: Pharmacological Study Report II: random and fasting (4 h) blood glucose and plasma insulin levels; conditions: Mean ± SD; for Change in Insulin (fasting): change over the 4 week treatment period; for Week 4 Insulin (fasting): week 4 of treatment
Method: as §3, §4, §5, §6, §7
Both random and fasting (4 h) blood glucose levels were determined using a hand-held glucometer (OneTouch Ultra, Lifescan, Inc. Milapitas, Calif.) on blood obtained from tail capillary samples. Plasma insulin levels were determined by a rat specific ELISA (Ultra Sensitive Rat Insulin ELISA Kit, Crystal Chem, Inc., Chicago, Ill.). The 4 h fast period started at 9 a.m. and ended after a blood draw at 1 p.m.

obese Zucker fa/fa rats [5] = assay: Pharmacological Study Report II: HbA1c levels; conditions: Mean ± SD; for Base line HbA1c: baseline; for Change in HbA1c: change over the 4 week treatment period; for Week 4 HbA1c: week 4 of treatment
Method: as §3, §4, §5, §6, §7
HbA1c level were determined using a DCA 2000 analyzer (Bayer Healthcare LLC, Elkhart Ind.) prior to beginning the study and again at the end of the 4th week treatment period.

## [H]/N=C(\N)NC(=O)c1cc(S(C)(=O)=O)c(S(C)(=O)=O)cc1C [Compound B, 2-Methyl-4,5-di-(methylsulfonyl)-benzoyl-guanidine hydrochloride hydrate]
[1]
  Body weight, difference among vehicle- and compound-treated groups: no significant differences
[2]
  Insulin sensitivity (% 2H2O recovery per insulin AUC), increase compared to pre-treatment values: ~4 fold
[3]; Zucker fa/fa rats, 4 weeks, 40 or 80 mg/kg in chow
  Average weekly food intake vs chow fed fa/fa controls: did not differ significantly
[3]; 40 mg/kg in chow
  Average food consumption, Week 1: 32.1 +/− 3.2 grams
  Average food consumption, Week 2: 33.8 +/− 2.9 grams
  Average food consumption, Week 3: 31.7 +/− 2.9 grams
  Average food consumption, Week 4: 33.6 +/− 4.4 grams
[3]; 80 mg/kg in chow
  Average food consumption, Week 1: 31.8 +/− 1.4 grams
  Average food consumption, Week 2: 32.9 +/− 1.9 grams
  Average food consumption, Week 3: 33.0 +/− 0.7 grams
  Average food consumption, Week 4: 34.0 +/− 2.9 grams
Obese Zucker fa/fa rats [4]; 40 mg/kg group
  Baseline Insulin (fasting): 14.7 ± 2.7 ng/mL
Obese Zucker fa/fa rats [4]; 80 mg/kg group
  Baseline Insulin (fasting): 16.2 ± 11.2 ng/mL
Obese Zucker fa/fa rats [4]; 40 mg/kg
  Change in Insulin (fasting): -0.2 ± 4.4 ng/mL
Obese Zucker fa/fa rats [4]; 80 mg/kg
  Change in Insulin (fasting): -3.2 ± 11.2 ng/mL
Obese Zucker fa/fa rats [4]; 40 mg/kg in chow
  Week 4 Insulin (fasting): 14.5 ± 5.5 ng/mL
Obese Zucker fa/fa rats [4]; 80 mg/kg in chow
  Week 4 Insulin (fasting): 13.1 ± 8.2 ng/mL
Obese Zucker fa/fa rats [5]; 40 mg/kg group
  Base line HbA1c: 3.8 ± 0.2%
Obese Zucker fa/fa rats [5]; 80 mg/kg group
  Base line HbA1c: 4.0 ± 0.4%
Obese Zucker fa/fa rats [5]; 40 mg/kg
  Change in HbA1c: 0.4 ± 0.2%
Obese Zucker fa/fa rats [5]; 80 mg/kg
  Change in HbA1c: 0.8 ± 0.7%
Obese Zucker fa/fa rats [5]; 40 mg/kg in chow
  Week 4 HbA1c: 4.3 ± 0.3%
Obese Zucker fa/fa rats [5]; 80 mg/kg in chow
  Week 4 HbA1c: 4.8 ± 0.4 %
